Reference: US20010044445A1, “AZOLE INHIBITORS OF CYTOKINE PRODUCTION” (priority 1999, published 2001)

What was measured:
[1] = system: Human peripheral blood mononuclear cells; test: Human Concanavalin-A Proliferation Assay (Con HU Assay); type: cell-based; conditions: Homo sapiens, PBMC, concanavalin-A stimulated human PBMC; for inhibition at 100 µM / inhibition at 1 µM / inhibition at 10 µM: 72 h, 3 days, read-out: % Inhibition of proliferation (at concentrations of 1,10, or 100 μm); for inhibition at 100 µM: concentration 100 μm (in parentheses in the cell); for IC50: tritiated thymidine; for inhibition at 1 µM: concentration 1 μm (in parentheses in the cell); for inhibition at 10 µM: concentration 10 μm (in parentheses in the cell)
Method in brief: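 Proliferation read as tritiated thymidine uptake (0.5 μCi/well, 6 h pulse on day 3) in human PBMC cultured 3 days with 2.5 μg/ml (final) concanavalin-A. Cells, 50,000 per well in supplemented RPMI 1640 with 10% FBS, received compound 15 min before mitogen.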

| SMILES | melting point | inhibition at 100 µM [1] | IC50 [1] | inhibition at 1 µM [1] | inhibition at 10 µM [1] |
| --- | --- | --- | --- | --- | --- |
| O=C(Nc1ccc(-n2nc(C(F)(F)F)cc2C(F)(F)F)cc1)c1ccc([N+](=O)[O-])cc1 [Example 93, N-[4-[3,5-bis(trifluoromethyl)-1H-pyrazol-1-yl]phenyl]-4-nitrobenzamide] | 185 to 188 °C | 100% | 365 nM |  |  |
| NS(=O)(=O)c1cccc(C(=O)Nc2ccc(-n3nc(C(F)(F)F)cc3C(F)(F)F)cc2)c1 [Example 141, 3-(aminosulfonyl)-N-[4-[3,5-bis(trifluoromethyl)-1H-pyrazol-1-yl]phenyl]benzamide] | 177 to 178 °C |  |  | 4% |  |
| O=C(Nc1ccc(-n2nc(C(F)(F)F)cc2C(F)(F)F)cc1)C1CCCCCC1 [Example 18, N-[4[3,5-bis(trifluoromethyl)-1H-pyrazol-1-yl]phenyl]cycloheptanecarboxamide] | 174 to 175 °C | 100% | 374 nM |  |  |
| O=C(Nc1cccc(-n2nc(C(F)(F)F)cc2C(F)(F)F)c1)c1cc([N+](=O)[O-])ccc1Cl [Example 199, N-[3-[3,5-bis(trifluoromethyl)-1H-pyrazol-1-yl]phenyl]-2-chloro-5-nitrobenzamide] | 147 to 152 °C |  |  | 30% |  |
| NC(=O)c1ccc(C(=O)Nc2ccc(-n3nc(C(F)(F)F)cc3C(F)(F)F)cc2)cc1 [Example 133, N-[4-[3,5-bis(trifluoromethyl)-1H-pyrazol-1-yl]phenyl]-1,4-benzenedicarboxamide] | 290 to 291 °C |  | 315 nM |  | 97% |
| O=C(Nc1ccc(-n2nc(C(F)(F)F)cc2C(F)(F)F)cc1)c1cccc(F)c1 [Example 146, N-[4-[3,5-bis(trifluoromethyl)-1H-pyrazol-1-yl]phenyl]-3-fluorobenzamide] | 148 to 151 °C | 98% | 269 nM |  |  |
| O=C(Nc1ccc(-n2nc(C(F)(F)F)cc2C(F)(F)F)cc1)c1ccc(C(F)(F)F)cc1C(F)(F)F [Example 183, N-[4-[3,5-bis(trifluoromethyl)-1H-pyrazol-1-yl]phenyl]-2,4-bis(trifluoromethyl)benzamide] | 200 to 201 °C |  | 542 nM |  | 94% |
| COc1cccc(O)c1C(=O)Nc1ccc(-n2nc(C(F)(F)F)cc2C(F)(F)F)cc1 [Example 182, N-[4-[3,5-bis(trifluoromethyl)-1H-pyrazol-1-yl]phenyl]-2-hydroxy-6-methoxybenzamide] | 114 to 116 °C |  | 4670 nM |  | 83% |
| N#Cc1cccc(/C=C/c2ccc(-n3nc(C(F)(F)F)cc3C(F)(F)F)cc2)c1 [Example 132, (E)-3-[2-[4-[3,5-bis(trifluoromethyl)-1H-pyrazol-1-yl]phenyl]ethenyl]benzonitrile] | 116 to 117 °C |  | 6220 nM |  | 56% |
| O=C(Nc1ccc(-n2nc(C(F)(F)F)cc2C(F)(F)F)cc1)c1ccncc1 [Example 116, N-[4-[3,5-bis(trifluoromethyl)-1H-pyrazol-1-yl]phenyl]-4-pyridinecarboxamide] | 156 to 157 °C |  | 154 nM |  | 100% |
| Nc1ccc(C(=O)Nc2ccc(-n3nc(C(F)(F)F)cc3C(F)(F)F)cc2)cc1 [Example 59, 4-Amino-N-[4-[3,5-bis(trifluoromethyl)-1H-pyrazol-1-yl]phenyl]benzamide] | > 240 °C |  |  | 54% |  |
| O=C(O)c1cccc(C(=O)Nc2ccc(-n3nc(C(F)(F)F)cc3C(F)(F)F)cc2)c1 [Example 159, 3-[[[4-[3,5-bis(trifluoromethyl)-1H-pyrazol-1-yl]phenyl]amino]carbonyl]benzoic acid] | 244 to 245 °C |  | 2930 nM |  | 93% |
| Nc1cccc(C(=O)Nc2ccc(-n3nc(C(F)(F)F)cc3C(F)(F)F)cc2)c1 [Example 58, 3-Amino-N-[4-[3,5-bis(trifluoromethyl)-1H-pyrazol-1-yl]phenyl]benzamide] | 203 to 204 °C |  | 484 nM |  | 97% |
| O=C(Nc1ccc(-n2nc(C(F)(F)F)cc2C(F)(F)F)cc1)c1ccccc1O [Example 103, N-[4-[3,5-bis(trifluoromethyl)-1H-pyrazol-1-yl]phenyl]-2-hydroxybenzamide] | 173 to 175 °C |  |  | 14% |  |
| Cc1ccsc1C(=O)Nc1ccc(-n2nc(C(F)(F)F)cc2C(F)(F)F)cc1 [Example 162, N-[4-[3,5-bis(trifluoromethyl)-1H-pyrazol-1-yl]phenyl]-3-methyl-2-thiophenecarboxamide] | 185 to 188 °C |  | 44 nM |  | 100% |
| COC1CCCC(C(=O)Nc2ccc(-n3nc(C(F)(F)F)cc3C(F)(F)F)cc2)C1 (centres unmarked) [Example 11, N-[4-[3,5-bis(trifluoromethyl)-1H-pyrazol-1-yl]phenyl]-3-methoxycyclohexanecarboxamide] | 145 to 147 °C |  | 376 nM |  | 100% |

Continued, in another order:

| melting point | SMILES | inhibition at 100 µM [1] | IC50 [1] | inhibition at 1 µM [1] | inhibition at 10 µM [1] |
| --- | --- | --- | --- | --- | --- |
| 180 to 181 °C | Cc1noc(C)c1C(=O)Nc1ccc(-n2nc(C(F)(F)F)cc2C)cc1 [Example 283, 3,5-Dimethyl-N-[4-[5-methyl-3-(trifluoromethyl)-1H-pyrazol-1-yl]phenyl]-4-isoxazolecarboxamide] | 99% | 1040 nM |  |  |
| 221 to 222 °C | N#Cc1cc(C(F)(F)F)nn1-c1ccc(NC(=O)c2ccncc2Cl)cc1 [Example 351, 3-chloro-N-(4-(5-cyano-3-(trifluoromethyl)-1H-pyrazol-1-yl)phenyl)isonicotinamide] |  | 309 nM |  |  |
| 186 to 187 °C | O=C(Nc1ccc(-n2nc(C(F)(F)F)cc2C(F)(F)F)cc1)c1ccc(F)c([N+](=O)[O-])c1 [Example 200, N-[4-[3,5-bis(trifluoromethyl)-1H-pyrazol-1-yl]phenyl]-4-fluoro-3-nitrobenzamide] |  |  | 26% |  |
| 159 to 160 °C | COc1cc(C(F)(F)F)nn1-c1ccc(NC(=O)c2snnc2C)cc1 [Example 314, N-(4-(5-methoxy-3-(trifluoromethyl)-1H-pyrazol-1-yl)phenyl)-4-methyl-1,2,3-thiadiazole-5-carboxamide] |  | 246 nM |  |  |
| 183 to 185 °C | O=C(Nc1ccc(-n2nc(C(F)(F)F)cc2C(F)(F)F)cc1)c1c(F)cc(F)cc1F [Example 229, N-[4-[3,5-bis(trifluoromethyl)-1H-pyrazol-1-yl]phenyl]-2,4,6-trifluorobenzamide] |  | 40 nM |  | 99% |
| 153 to 155 °C | O=C(Nc1ccc(-n2nc(C(F)(F)F)cc2-c2cccs2)cc1)c1ccncc1F [Example 311, 3-fluoro-N-(4-(5-(2-thienyl)-3-(trifluoromethyl)-1H-pyrazol-1-yl)phenyl)isonicotinamide] |  | 323 nM |  |  |
| 165 to 167 °C | O=C(Nc1ccc(-n2nc(C(F)(F)F)cc2C(F)(F)F)cc1)c1c(F)cccc1Cl [Example 212, N-[4-[3,5-bis(trifluoromethyl)-1H-pyrazol-1-yl]phenyl]-2-chloro-6-fluorobenzamide] |  | 70 nM |  | 99% |
| 230 °C | Cc1nnsc1C(=O)Nc1ccc(-n2nc(-c3nccs3)cc2C#N)cc1 [Example 340, N-(4-(5-cyano-3-(1,3-thiazol-2-yl)-1H-pyrazol-1-yl)phenyl)-4-methyl-1,2,3-thiadiazole-5-carboxamide] |  | 251 nM |  |  |
| 188 to 189 °C | Cc1ccc([N+](=O)[O-])c(C(=O)Nc2ccc(-n3nc(C(F)(F)F)cc3C(F)(F)F)cc2)c1 [Example 237, N-[4-[3,5-bis(trifluoromethyl)-1H-pyrazol-1-yl]phenyl]-5-methyl-2-nitrobenzamide] | 100% | 368 nM |  |  |
| 150 to 151 °C | N#Cc1cc(C(F)(F)F)nn1-c1ccc(NC(=O)c2cccnc2F)cc1 [Example 306, N-(4-(5-cyano-3-(trifluoromethyl)-1H-pyrazol-1-yl)phenyl)-2-fluoronicotinamide] |  | 265 nM |  |  |
| 200 to 202 °C | O=C(Nc1ccc(-n2nc(C(F)(F)F)cc2C(F)(F)F)cc1)c1ccc(Cl)cc1O [Example 220, N-[4-[3,5-bis(trifluoromethyl)-1H-pyrazol-1-yl]phenyl]-4-chloro-2-hydroxybenzamide] |  | 4230 nM |  | 100% |
| 167 to 168 °C | CSc1cc(C(F)(F)F)nn1-c1ccc(NC(=O)c2cccnc2F)cc1 [Example 316, 2-fluoro-N-(4-(5-(methylsulfanyl)-3-(trifluoromethyl)-1H-pyrazol-1-yl)phenyl)nicotinamide] |  | 41 nM |  |  |
| 162 to 163 °C | N#Cc1cc(C(F)(F)F)nn1-c1ccc(NC(=O)c2ccccc2Cl)cc1 [Example 350, 2-chloro-N-(4-(5-cyano-3-(trifluoromethyl)-1H-pyrazol-1-yl)phenyl)benzamide] |  | 240 nM |  |  |
| 193 to 195 °C | Cc1nnsc1C(=O)Nc1ccc(-n2nc(C(F)(F)F)cc2C#N)cc1 [Example 302, N-(4-(5-cyano-3-(trifluoromethyl)-1H-pyrazol-1-yl)phenyl)-4-methyl-1,2,3-thiadiazole-5-carboxamide] |  | 358 nM |  |  |
